From ChEMBL document CHEMBL4145555, “Synthetic Approaches to New Drugs Approved During 2016” (J Med Chem, 2018)

Experiment: Half life in human plasma at 20 mg/day, po
Type: ADME, organism-based

Question: For `Cl.Clc1ccc(CCCOCCCN2CCCCC2)cc1` [PITOLISANT HYDROCHLORIDE], which half-life is on record?
Answer: 10 to 12 h
